Read-outs that look alike come from different tables or passages of the source.

The target in one assay is Human mTOR (Homo sapiens, UniProt P42345). As to the kind of experiment: mTOR kinase assay (DELFIA format, purified enzyme). The assay is classed as biochemical. Set-up: FLAG.
For another assay, the target named is human SMG-1 (hSMG-1) (Homo sapiens, UniProt Q96Q15). Description: hSMG-1 kinase assay (DELFIA). The settings on record: read-out: hSMG1 IC50. The assay is classed as biochemical.
human SMG-1 (hSMG-1), sequence (Q96Q15 whole entry): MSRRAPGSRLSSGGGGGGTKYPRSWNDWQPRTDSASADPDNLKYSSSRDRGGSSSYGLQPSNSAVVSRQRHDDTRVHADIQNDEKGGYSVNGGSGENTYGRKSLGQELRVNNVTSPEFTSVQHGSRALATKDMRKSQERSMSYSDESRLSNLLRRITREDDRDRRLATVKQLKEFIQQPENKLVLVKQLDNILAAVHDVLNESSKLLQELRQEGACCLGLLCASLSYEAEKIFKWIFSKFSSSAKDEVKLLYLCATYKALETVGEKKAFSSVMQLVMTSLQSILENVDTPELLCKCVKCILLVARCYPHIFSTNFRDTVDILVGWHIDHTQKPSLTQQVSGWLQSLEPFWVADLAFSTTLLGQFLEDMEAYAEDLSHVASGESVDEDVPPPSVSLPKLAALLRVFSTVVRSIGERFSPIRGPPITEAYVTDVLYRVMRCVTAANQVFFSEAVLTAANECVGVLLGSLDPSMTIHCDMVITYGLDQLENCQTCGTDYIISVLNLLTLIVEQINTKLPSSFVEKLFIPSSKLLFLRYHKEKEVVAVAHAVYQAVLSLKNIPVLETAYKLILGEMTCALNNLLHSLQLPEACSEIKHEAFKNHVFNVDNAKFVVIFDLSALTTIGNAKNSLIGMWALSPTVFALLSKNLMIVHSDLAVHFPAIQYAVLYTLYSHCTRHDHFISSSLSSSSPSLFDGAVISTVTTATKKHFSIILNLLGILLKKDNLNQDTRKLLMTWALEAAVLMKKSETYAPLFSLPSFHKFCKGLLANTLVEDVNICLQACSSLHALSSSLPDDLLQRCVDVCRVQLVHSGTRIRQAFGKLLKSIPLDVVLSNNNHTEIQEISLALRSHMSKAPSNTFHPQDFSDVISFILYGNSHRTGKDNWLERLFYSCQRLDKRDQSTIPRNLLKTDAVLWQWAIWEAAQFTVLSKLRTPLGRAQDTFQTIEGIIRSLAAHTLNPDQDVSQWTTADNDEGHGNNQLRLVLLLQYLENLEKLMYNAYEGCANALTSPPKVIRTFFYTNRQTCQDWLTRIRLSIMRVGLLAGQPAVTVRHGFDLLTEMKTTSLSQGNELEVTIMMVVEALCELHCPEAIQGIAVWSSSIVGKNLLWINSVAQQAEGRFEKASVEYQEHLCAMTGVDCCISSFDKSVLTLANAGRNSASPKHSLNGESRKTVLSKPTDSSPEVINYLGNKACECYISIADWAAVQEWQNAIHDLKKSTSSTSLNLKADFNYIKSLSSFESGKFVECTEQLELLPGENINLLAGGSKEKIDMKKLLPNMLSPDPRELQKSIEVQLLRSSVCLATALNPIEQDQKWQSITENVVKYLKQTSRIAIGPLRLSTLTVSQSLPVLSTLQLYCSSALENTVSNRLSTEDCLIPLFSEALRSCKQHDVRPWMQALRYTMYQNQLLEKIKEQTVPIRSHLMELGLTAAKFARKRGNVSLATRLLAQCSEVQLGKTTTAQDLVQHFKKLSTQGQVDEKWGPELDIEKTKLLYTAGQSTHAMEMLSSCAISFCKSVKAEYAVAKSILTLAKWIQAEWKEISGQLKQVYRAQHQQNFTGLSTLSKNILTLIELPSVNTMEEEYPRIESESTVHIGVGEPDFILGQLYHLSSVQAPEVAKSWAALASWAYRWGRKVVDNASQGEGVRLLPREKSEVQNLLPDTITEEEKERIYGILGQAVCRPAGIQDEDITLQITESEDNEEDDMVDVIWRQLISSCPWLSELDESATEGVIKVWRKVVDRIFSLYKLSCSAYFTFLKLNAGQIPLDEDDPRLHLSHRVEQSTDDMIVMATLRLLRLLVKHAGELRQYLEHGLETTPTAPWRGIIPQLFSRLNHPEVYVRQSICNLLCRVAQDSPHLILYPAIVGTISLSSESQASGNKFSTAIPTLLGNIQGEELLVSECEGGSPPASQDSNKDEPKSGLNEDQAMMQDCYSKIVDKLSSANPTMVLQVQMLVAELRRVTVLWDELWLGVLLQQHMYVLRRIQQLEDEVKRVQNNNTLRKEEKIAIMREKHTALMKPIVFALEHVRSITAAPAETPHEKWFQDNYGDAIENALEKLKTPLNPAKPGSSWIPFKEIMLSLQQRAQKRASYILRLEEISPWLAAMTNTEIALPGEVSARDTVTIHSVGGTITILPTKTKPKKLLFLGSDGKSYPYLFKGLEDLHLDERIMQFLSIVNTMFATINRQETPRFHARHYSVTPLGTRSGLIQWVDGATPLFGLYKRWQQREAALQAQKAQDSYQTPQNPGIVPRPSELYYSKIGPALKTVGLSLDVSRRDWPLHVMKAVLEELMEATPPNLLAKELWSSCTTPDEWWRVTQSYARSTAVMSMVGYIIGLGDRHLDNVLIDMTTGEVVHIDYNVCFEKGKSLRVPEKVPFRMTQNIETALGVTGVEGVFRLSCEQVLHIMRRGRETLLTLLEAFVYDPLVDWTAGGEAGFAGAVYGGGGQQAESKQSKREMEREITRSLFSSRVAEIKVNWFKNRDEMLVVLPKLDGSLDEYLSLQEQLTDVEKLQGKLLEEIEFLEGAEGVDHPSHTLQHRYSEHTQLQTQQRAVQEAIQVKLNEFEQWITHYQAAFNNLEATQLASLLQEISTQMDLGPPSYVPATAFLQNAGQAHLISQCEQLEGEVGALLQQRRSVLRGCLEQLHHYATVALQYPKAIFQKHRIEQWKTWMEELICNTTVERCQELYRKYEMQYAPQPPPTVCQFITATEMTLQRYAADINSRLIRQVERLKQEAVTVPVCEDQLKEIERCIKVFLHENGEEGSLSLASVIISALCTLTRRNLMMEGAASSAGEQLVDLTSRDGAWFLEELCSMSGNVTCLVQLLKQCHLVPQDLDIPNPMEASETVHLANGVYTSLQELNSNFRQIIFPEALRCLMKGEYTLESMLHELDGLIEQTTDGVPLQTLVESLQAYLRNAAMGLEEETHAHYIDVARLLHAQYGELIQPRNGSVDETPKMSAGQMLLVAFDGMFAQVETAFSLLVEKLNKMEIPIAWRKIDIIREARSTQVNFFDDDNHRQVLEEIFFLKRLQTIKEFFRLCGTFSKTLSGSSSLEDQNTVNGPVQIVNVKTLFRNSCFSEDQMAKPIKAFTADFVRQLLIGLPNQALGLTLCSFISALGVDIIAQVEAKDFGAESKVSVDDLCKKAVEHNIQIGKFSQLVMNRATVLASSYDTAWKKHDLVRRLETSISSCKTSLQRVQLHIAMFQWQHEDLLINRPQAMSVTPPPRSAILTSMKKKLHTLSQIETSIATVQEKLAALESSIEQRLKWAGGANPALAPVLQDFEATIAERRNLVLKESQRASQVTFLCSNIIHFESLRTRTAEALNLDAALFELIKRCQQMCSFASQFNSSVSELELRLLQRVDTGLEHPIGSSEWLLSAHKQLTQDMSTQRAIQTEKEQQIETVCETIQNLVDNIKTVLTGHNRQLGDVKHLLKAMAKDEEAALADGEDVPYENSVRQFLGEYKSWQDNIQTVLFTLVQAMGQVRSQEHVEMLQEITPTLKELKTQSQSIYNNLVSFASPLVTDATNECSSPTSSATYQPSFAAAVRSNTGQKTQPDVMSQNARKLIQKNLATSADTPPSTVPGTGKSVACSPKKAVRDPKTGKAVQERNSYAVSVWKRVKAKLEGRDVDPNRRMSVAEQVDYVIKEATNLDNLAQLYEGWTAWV

With `Cn1ccc2c3nc(-c4ccc(NC(=O)NC5CCC5)cc4)nc(N4CCOCC4)c3ccc21` [Example 106, 1-cyclobutyl-3-[4-(7-methyl-4-morpholin-4-yl-7H-pyrrolo[2,3-h]quinazolin-2-yl)phenyl]urea], the figures for the IC50 at Human mTOR (read-out: TOR Kinase IC50) and at human SMG-1 (hSMG-1) were 1.5 µM and 16.5 µM, respectively. The matching figures for `COC(=O)Nc1ccc(-c2nc(N3CCOCC3)c3ccc4c(ccn4CCN(C)C)c3n2)cc1` [Example 98, methyl (4-{7-[2-(dimethylamino)ethyl]-4-morpholin-4-yl-7H-pyrrolo[2,3-h]quinazolin-2-yl}phenyl)carbamate]: 2 µM and above 20 µM.

In the case of `Cn1ccc2c3nc(-c4ccc(NC(=O)NC5CCCCC5)cc4)nc(N4CCOCC4)c3ccc21` [Example 108, 1-cyclohexyl-3-[4-(7-methyl-4-morpholin-4-yl-7H-pyrrolo[2,3-h]quinazolin-2-yl)phenyl]urea], the results for the IC50 at Human mTOR (read-out: TOR Kinase IC50) and at human SMG-1 (hSMG-1) were 7.25 µM and above 20 µM, respectively. As for `CN(C)CCn1ccc2c3nc(-c4ccc(NC(=O)Nc5ccccc5)cc4)nc(N4CCOCC4)c3ccc21` [Example 95, 1-(4-{7-[2-(dimethylamino)ethyl]-4-morpholin-4-yl-7H-pyrrolo[2,3-h]quinazolin-2-yl}phenyl)-3-phenylurea], the IC50 on Human mTOR (read-out: TOR Kinase IC50) came out at 0.05 µM; on human SMG-1 (hSMG-1), 1.8 µM. In the case of `CC(=O)Nc1ccc(-c2nc(N3CCOCC3)c3ccc4c(ccn4CCN(C)C)c3n2)cc1` [Example 112, N-(4-{7-[2-(dimethylamino)ethyl]-4-morpholin-4-yl-7H-pyrrolo[2,3-h]quinazolin-2-yl}phenyl)acetamide], the IC50 at Human mTOR (read-out: TOR Kinase IC50) is 2.8 µM; at human SMG-1 (hSMG-1), above 20 µM. For `Cn1ccc2c3nc(-c4ccc(NC(=O)NCC5CC5)cc4)nc(N4CCOCC4)c3ccc21` [Example 100, 1-(cyclopropylmethyl)-3-[4-(7-methyl-4-morpholin-4-yl-7H-pyrrolo[2,3-h]quinazolin-2-yl)phenyl]urea] the same measures were 0.5 µM and 16 µM. The matching figures for `CC(C)NC(=O)Nc1ccc(-c2nc(N3CCOCC3)c3ccc4c(ccn4C)c3n2)cc1` [Example 99, 1-(1-methylethyl)-3-[4-(7-methyl-4-morpholin-4-yl-7H-pyrrolo[2,3-h]quinazolin-2-yl)phenyl]urea]: 0.215 µM and 14.5 µM. On to `COCCNC(=O)Nc1ccc(-c2nc(N3CCOCC3)c3ccc4c(ccn4C)c3n2)cc1` [Example 101, 1-(2-methoxyethyl)-3-[4-(7-methyl-4-morpholin-4-yl-7H-pyrrolo[2,3-h]quinazolin-2-yl)phenyl]urea], for which the IC50 on Human mTOR (read-out: TOR Kinase IC50) is 1.8 µM; at human SMG-1 (hSMG-1) it was above 20 µM. The matching figures for `Cn1ccc2c3nc(-c4ccc(NC(=O)NC5CCS(=O)(=O)C5)cc4)nc(N4CCOCC4)c3ccc21` (centres unmarked) [Example 117, 1-(1,1-dioxidotetrahydrothiophen-3-yl)-3-[4-(7-methyl-4-morpholin-4-yl-7H-pyrrolo[2,3-h]quinazolin-2-yl)phenyl]urea]: 0.6 µM and above 20 µM. Take `CCC(=O)Nc1cccc(-c2nc(N3CCOCC3)c3ccc4c(ccn4C)c3n2)c1` [Example 129, N-[3-(7-methyl-4-morpholin-4-yl-7H-pyrrolo[2,3-h]quinazolin-2-yl)phenyl]propanamide]: the IC50 was 1.5 µM at Human mTOR (read-out: TOR Kinase IC50) and above 20 µM on human SMG-1 (hSMG-1). For `CN(C)CCn1ccc2c3nc(-c4ccc(NC(=O)C5CC5)cc4)nc(N4CCOCC4)c3ccc21` [Example 96, N-(4-{7-[2-(dimethylamino)ethyl]-4-morpholin-4-yl-7H-pyrrolo[2,3-h]quinazolin-2-yl}phenyl)cyclopropanecarboxamide] the same measures were 5.25 µM and above 20 µM. For `CCCOC(=O)Nc1ccc(-c2nc(N3CCOCC3)c3ccc4c(ccn4S(C)(=O)=O)c3n2)cc1` [Example 109, propyl {4-[7-(methylsulfonyl)-4-morpholin-4-yl-7H-pyrrolo[2,3-h]quinazolin-2-yl]phenyl}carbamate] the same measures were 2.05 µM and above 20 µM.

Take `CCCC(=O)Nc1cccc(-c2nc(N3CCOCC3)c3ccc4c(ccn4C)c3n2)c1` [Example 126, N-[3-(7-methyl-4-morpholin-4-yl-7H-pyrrolo[2,3-h]quinazolin-2-yl)phenyl]butanamide]: the IC50 at Human mTOR (read-out: TOR Kinase IC50) was 1.9 µM; at human SMG-1 (hSMG-1), above 20 µM.

For `CCCC(=O)Nc1ccc(-c2nc(N3CCOCC3)c3ccc4c(ccn4S(C)(=O)=O)c3n2)cc1` [Example 88, N-{4-[7-(methylsulfonyl)-4-morpholin-4-yl-7H-pyrrolo[2,3-h]quinazolin-2-yl]phenyl}butanamide], the IC50 at human SMG-1 (hSMG-1) is above 20 µM. Same read-out and setting: for `COC(=O)Nc1ccc(-c2nc(N3CCOCC3)c3ccc4c(ccn4S(C)(=O)=O)c3n2)cc1` [Example 90, methyl {4-[7-(methylsulfonyl)-4-morpholin-4-yl-7H-pyrrolo[2,3-h]quinazolin-2-yl]phenyl}carbamate] the value was 5.6 µM. Turning to `Cn1ccc2c3nc(-c4ccc(NC(=O)NCCc5ccncc5)cc4)nc(N4CCOCC4)c3ccc21` [Example 120, 1-[4-(7-methyl-4-morpholin-4-yl-7H-pyrrolo[2,3-h]quinazolin-2-yl)phenyl]-3-(2-pyridin-4-ylethyl)urea], the IC50 on Human mTOR (read-out: TOR Kinase IC50) turned out to be 0.625 µM; at human SMG-1 (hSMG-1), 3.3 µM. As to `CC(=O)Nc1ccc(-c2nc(N3CCOCC3)c3ccc4c(ccn4S(C)(=O)=O)c3n2)cc1` [Example 92, N-{4-[7-(methylsulfonyl)-4-morpholin-4-yl-7H-pyrrolo[2,3-h]quinazolin-2-yl]phenyl}acetamide], the IC50 at human SMG-1 (hSMG-1) came to 5.25 µM.

`Cn1ccc2c3nc(-c4ccc(NC(=O)NCCF)cc4)nc(N4CCOCC4)c3ccc21` [Example 118, 1-(2-fluoroethyl)-3-[4-(7-methyl-4-morpholin-4-yl-7H-pyrrolo[2,3-h]quinazolin-2-yl)phenyl]urea]: the IC50 at Human mTOR (read-out: TOR Kinase IC50) was 0.625 µM; at human SMG-1 (hSMG-1), 15 µM. With `Cn1ccc2c3nc(-c4ccc(NC(=O)NC5CCCC5)cc4)nc(N4CCOCC4)c3ccc21` [Example 105, 1-cyclopentyl-3-[4-(7-methyl-4-morpholin-4-yl-7H-pyrrolo[2,3-h]quinazolin-2-yl)phenyl]urea], the results for the IC50 at Human mTOR (read-out: TOR Kinase IC50) and at human SMG-1 (hSMG-1) were 2.05 µM and above 20 µM, respectively.

Regarding `Cn1ccc2c3nc(-c4ccc(NC(=O)NCCCN5CCCC5)cc4)nc(N4CCOCC4)c3ccc21` [Example 104], the IC50 on Human mTOR (read-out: TOR Kinase IC50) was 2.4 µM; on human SMG-1 (hSMG-1), above 20 µM.

Turning to `Cn1ccc2c3nc(-c4cccc(NC(=O)C5CC5)c4)nc(N4CCOCC4)c3ccc21` [Example 125, N-[3-(7-methyl-4-morpholin-4-yl-7H-pyrrolo[2,3-h]quinazolin-2-yl)phenyl]cyclopropanecarboxamide], the figures for the IC50 on Human mTOR (read-out: TOR Kinase IC50) and on human SMG-1 (hSMG-1) were 1.3 µM and above 20 µM, respectively.

As to `CCCC(=O)Nc1ccc(-c2nc(N3CCOCC3)c3ccc4c(ccn4CCN(C)C)c3n2)cc1` [Example 97, N-(4-{7-[2-(dimethylamino)ethyl]-4-morpholin-4-yl-7H-pyrrolo[2,3-h]quinazolin-2-yl}phenyl)butanamide], the IC50 at Human mTOR (read-out: TOR Kinase IC50) was 6.2 µM; at human SMG-1 (hSMG-1), above 20 µM. The matching figures for `Cn1ccc2c3nc(-c4ccc(NC(=O)NCC(F)(F)F)cc4)nc(N4CCOCC4)c3ccc21` [Example 119, 1-[4-(7-methyl-4-morpholin-4-yl-7H-pyrrolo[2,3-h]quinazolin-2-yl)phenyl]-3-(2,2,2-trifluoroethyl)urea]: 1.26 µM and 6.5 µM. The matching figures for `CCNC(=O)Nc1cccc(-c2nc(N3CCOCC3)c3ccc4c(ccn4C)c3n2)c1` [Example 128, 1-ethyl-3-[3-(7-methyl-4-morpholin-4-yl-7H-pyrrolo[2,3-h]quinazolin-2-yl)phenyl]urea]: 1.8 µM and above 20 µM. Take `CCCNC(=O)Nc1cccc(-c2nc(N3CCOCC3)c3ccc4c(ccn4C)c3n2)c1` [Example 127, 1-[3-(7-methyl-4-morpholin-4-yl-7H-pyrrolo[2,3-h]quinazolin-2-yl)phenyl]-3-propylurea]: the IC50 is 1.5 µM at Human mTOR (read-out: TOR Kinase IC50) and 15.5 µM at human SMG-1 (hSMG-1). Regarding `Cn1ccc2c3nc(-c4ccc(NC(=O)NCC5CCCO5)cc4)nc(N4CCOCC4)c3ccc21` (centres unmarked) [Example 102, 1-[4-(7-methyl-4-morpholin-4-yl-7H-pyrrolo[2,3-h]quinazolin-2-yl)phenyl]-3-(tetrahydrofuran-2-ylmethyl)urea], the results for the IC50 at Human mTOR (read-out: TOR Kinase IC50) and at human SMG-1 (hSMG-1) were 1.5 µM and above 17 µM, respectively.

Consider `Cc1noc(C)c1NC(=O)Nc1ccc(-c2nc(N3CCOCC3)c3ccc4c(ccn4C)c3n2)cc1` [Example 116, 1-(3,5-dimethylisoxazol-4-yl)-3-[4-(7-methyl-4-morpholin-4-yl-7H-pyrrolo[2,3-h]quinazolin-2-yl)phenyl]urea], for which the IC50 on Human mTOR (read-out: TOR Kinase IC50) was 1.27 µM; on human SMG-1 (hSMG-1), above 20 µM. As for `CC(=O)c1ccc(NC(=O)Nc2ccc(-c3nc(N4CCOCC4)c4ccc5c(ccn5C)c4n3)cc2)cc1` [Example 115, 1-(4-acetylphenyl)-3-[4-(7-methyl-4-morpholin-4-yl-7H-pyrrolo[2,3-h]quinazolin-2-yl)phenyl]urea], the IC50 at Human mTOR (read-out: TOR Kinase IC50) stood at 0.47 µM; at human SMG-1 (hSMG-1) it was 4.25 µM. The matching figures for `CCOC(=O)Nc1cccc(-c2nc(N3CCOCC3)c3ccc4c(ccn4C)c3n2)c1` [Example 124, ethyl [3-(7-methyl-4-morpholin-4-yl-7H-pyrrolo[2,3-h]quinazolin-2-yl)phenyl]carbamate]: 1.9 µM and above 20 µM. Regarding `CC(=O)c1cccc(NC(=O)Nc2ccc(-c3nc(N4CCOCC4)c4ccc5c(ccn5C)c4n3)cc2)c1` [Example 114, 1-(3-acetylphenyl)-3-[4-(7-methyl-4-morpholin-4-yl-7H-pyrrolo[2,3-h]quinazolin-2-yl)phenyl]urea], the IC50 against Human mTOR was determined as 5.55 µM; at human SMG-1 (hSMG-1), 10.5 µM. Take `Cn1ccc2c3nc(-c4cccc(NC(=O)Nc5cccnc5)c4)nc(N4CCOCC4)c3ccc21` [Example 123, 1-[3-(7-methyl-4-morpholin-4-yl-7H-pyrrolo[2,3-h]quinazolin-2-yl)phenyl]-3-pyridin-3-ylurea]: the IC50 was 2.55 µM at Human mTOR (read-out: TOR Kinase IC50) and 5.5 µM at human SMG-1 (hSMG-1).

Broadly, the IC50 is the point on the concentration scale where inhibition reaches its midpoint.

Values taken from patent US20090227575A1, “7H-PYRROLO[2,3-H]QUINAZOLINE COMPOUNDS, THEIR USE AS mTOR KINASE AND PI3 KINASE INHIBITORS, AND THEIR [sequence]” (Wyeth, priority 2008, published 2009).
